{
  "source": "patent US9642819B2",
  "about": "“Low dosage serotonin 5-HT2A receptor agonist to suppress inflammation” (BOARD OF SUPERVISORS OF LOUISIANA STATE UNIVERSITY AND …, priority 2008, dated 2017)",
  "key": {"[1]": {"system": "nitrite accumulation in C6 glioma cells", "conditions": "cocktail of TNF-α, read-out: IC50 for partial block of LPS and cytokine stimulated nitrite accumulation; cited from earlier work"}, "ICAM-1 gene expression [2]": {"system": "ICAM-1 gene expression", "assay": "TNF-α induced ICAM-1 gene expression in primary rat aortic smooth muscle cells", "format": "cell-based", "conditions": "for block of TNF-α induced ICAM1 gene expression at 1 nM: VCAM1 and IL6 identical", "experimental": "(§1) RASM cells and treatment. Rat aortic smooth muscle (RASM) cells were isolated from adult 180 g male Sprague-Dawley rats and provided by the Cell and Molecular Core Facility in the Department of Pharmacology at LSUHSC-NO. Isolated RASM cells were grown in M-199 media containing 10% fetal bovine serum (Gibco), 100 units/mL penicillin, and 100 µg/mL streptomycin, and incubated at 37° C. in 5% CO2. Cells for all assays were used between passages 3 and 5. Prior to treatments, cells were grown in M-199 media with 10% fetal bovine serum (FBS) until 30-50% confluent. For most assays, cells were treated with (R)-DOI, or other drugs as indicated, at specific concentrations for 24 hours, followed by TNF-α (10 ng/ml) and (R)-DOI at the same pretreatment concentrations in fresh M-199 media. After another 24 hours, the cells were scraped, pelleted, and processed for RNA.\n(§2) RNA isolation and Quantitative Realtime-PCR. RNA was extracted from cells using Illustra RNAspin Mini kits from GE Healthcare Life Sciences (Piscataway, N.J.) following protocols supplied by the manufacturer. First strand cDNA was generated using the ImProm-II cDNA synthesis kit (Promega) following the manufacturers protocols. Q-RT-PCR was performed using the ProbeLibrary system from Roche (Indianapolis, Ind.) in combination with the HotStart-IT probe qpcr master mix from USB Biological (Cleveland, Ohio) following manufactures protocols.\n(§3) Primers were synthesized by IDT (Coralville, Iowa). ProbeLibrary probes from Roche were: U3, U74, U13, U106, U79 for 5-HT2AR, ICAM-1, VCAM-1, IL-6, and cyclophillin B, respectively. Quantitative determination of gene expression levels using a 2-step cycling protocol was performed on a MyIQ-5 Cycler (Bio-Rad, Hercules Calif.). Relative gene expression levels were calculated using the 2^[−ΔΔC(T)] method. Levels of all targets from the test samples were normalized to rat cyclophillin B expression.\n(§4) To examine the effects of 5-HT2A receptor activation on TNF-α mediated proinflammatory gene expression, RASM cells were pretreated with (R)-DOI, a selective 5-HT2 receptor agonist, as described above. Dose-response curves were determined for the effects on ICAM-1, VCAM-1, and IL-6 gene expression for twelve different concentrations of (R)-DOI ranging from 0.1 pM to 100 nM, with each experiment repeated in triplicate. In FIGS. 1A-1C, the Y-axis represents a percent of TNF-α for the dose of (R)-DOI indicated on the X-axis."}, "ICAM-1 gene expression [3]": {"system": "ICAM-1 gene expression", "assay": "TNF-α induced ICAM-1 gene expression in rat C6 glioma cells", "format": "cell-based", "conditions": "1 nM and 50 nM prior to TNF-α", "experimental": "Experiments were conducted to analyze for the effect of 5-HT2A receptor activation on proinflammatory marker expression in other cell types. Human neuroblastoma cells (SHSY5Y) and rat glioma cells (C6) can be obtained from the American Type Culture Collection (Manassas, Va.), but were provided Purdue University. The cells were grown in DMEM+10% FBS. DMEM was made and provided by the Cell and Molecular Core of the Mentoring in Cardiovascular Biology COBRE center at LSUHSC-NO. FBS was purchased from Invitrogen (Carlsbad, Calif.). Primary rat aortic endothelial cells were prepared fresh and provided by the Cell and Molecular Core of the Mentoring in Cardiovascular Biology COBRE center at LSUHSC-NO. Cells were tested at passages 3-4. Cells were grown in endothelial cell growth medium (Cell Applications, Inc.). Primary rat bronchoaveolar macrophage cells were obtained by lung lavage from rats and used at day 3 or 4 post plating in DMEM+10% FBS.\nAll treatments with 5-HT2A receptor agonists occurred 1 hour prior to the addition of TNF-alpha (10 ng/ml) or LPS (100 ng or 1 mg) depending on the experiment. All RNA isolations, cDNA synthesis, QPCR gene expression assays examining ICAM1, VCAM1, and IL6, and data analysis were performed as described above in Example 1, except the primers were different for the human cell experiment. […]"}, "[4]": {"system": "ICAM-1, VCAM-1, and IL-6 gene expression", "assay": "TNF-α induced proinflammatory gene expression (ICAM-1, VCAM-1, IL-6) by Q-RT-PCR in RASM cells", "format": "cell-based, rat", "conditions": "for effect of receptor antagonist on the inhibitory effects of (R)-DOI: antagonist 100 nM 30 minutes prior to 1 nM (R)-DOI, then TNF-α", "experimental": "as §1, §2, §3, §4"}, "[5]": {"system": "Nitric Oxide Synthetase (NOS) activity", "assay": "NOS activity: nitrite levels in culture medium of RASM cells after TNF-α", "format": "cell-based, rat", "conditions": "100 nM prior to 1 nM (R)-DOI", "experimental": "Nitric Oxide Synthetase (NOS) Activity. NOS activity was determined by detection of nitrite levels in the cell culture medium following (R)-DOI/TNF-α treatments utilizing the Nitrate Detection kit from Assay Designs (Ann Arbor, Mich.) following the manufacturers protocols. Absorbances were detected at 539 nm on a […] SpectraMax M2 plate reader.\nA key participant in inflammatory processes is NOS activity (Guzik et al., 2003). NOS activity can regulate NF-kB activation (Ckless et al., 2007), and cytokine pathway-activated NF-kB can transcriptionally regulate iNOS gene expression (Guo et al., 2007). To examine the effects of 5-HT2A receptor activation on this component of inflammatory mechanisms, primary RASM cells were used to examine the ability of 1 nM (R)-DOI to block TNF-α mediated increases in nitrite levels.\nAs an indicator of NOS activity, nitrite levels were measured in the cell culture media after treatments and are shown in FIG. 6 as % control. […] Pretreatment with 1 nM (R)-DOI for 24 hours blocked TNF-α mediated increases in nitrite accumulation (DOI+T)."}, "[6]": {"system": "nuclear translocation of p65", "assay": "Nuclear translocation of NF-κB subunit p65 in RASM cells", "format": "cell-based, rat", "conditions": "pretreatment of the 1 hour time point", "experimental": "Nuclear Translocation of p65. RASM cells were grown in M-199 medium+10% FBS until 50% confluent in 8 well chamber slides. Cells were treated with 1 nM (R)-DOI for various times as indicated, and TNF-α (10 ng/ml; tumor necrosis factor alpha) added. Thirty minutes after TNF-α treatment, cells were fixed and processed with rabbit anti p65 primary and Alexafluor 488-conjugated goat secondary antibodies as described in Zerfaoui et al. (2008) (Zerfaoui et al., 2008). Fluorescent signal was visualized on a Leica DMRA2 fluorescent microscope.\nBoth ICAM-1 and VCAM-1 gene transcription during inflammatory processes is regulated by the transcription factor NF-κB (Collins et al., 1995). During this process, NF-κB must be activated, and then translocated from the cytoplasm to the nucleus, where it promotes gene transcription. To investigate whether 5-HT2A receptor stimulated inhibition of NF-κB activation and translocation might be a possible mechanism for blockade of proinflammatory gene expression changes, a series of immunohistochemical experiments were conducted examining p65 translocation in RASM cells. TNF-α treatment for 30 minutes caused the expected dramatic shift in localization of the p65 subunit of NF-κB from the cytoplasm to the nucleus (FIG. 7A). […]"}, "5-HT2A receptors": {"biological_target": "5-HT2A receptors (Homo sapiens, UniProt P28223)", "sequence (P28223 whole entry)": "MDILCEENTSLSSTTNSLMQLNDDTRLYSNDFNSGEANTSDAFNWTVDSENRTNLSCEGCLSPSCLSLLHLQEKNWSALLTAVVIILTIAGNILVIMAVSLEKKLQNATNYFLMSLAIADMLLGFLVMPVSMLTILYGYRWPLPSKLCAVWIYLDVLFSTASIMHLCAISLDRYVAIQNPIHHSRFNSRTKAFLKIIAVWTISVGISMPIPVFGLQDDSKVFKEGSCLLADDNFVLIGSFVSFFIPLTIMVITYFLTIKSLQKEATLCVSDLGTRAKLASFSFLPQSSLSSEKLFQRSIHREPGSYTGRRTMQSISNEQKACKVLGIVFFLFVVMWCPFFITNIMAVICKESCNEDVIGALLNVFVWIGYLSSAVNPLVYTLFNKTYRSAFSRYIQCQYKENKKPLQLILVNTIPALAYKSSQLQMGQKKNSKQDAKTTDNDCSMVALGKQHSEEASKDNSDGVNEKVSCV", "conditions": "cited from earlier work"}, "α1-adrenergic receptors": {"system": "α1-adrenergic receptors", "conditions": "cited from earlier work"}, "histamine H1 receptors": {"biological_target": "histamine H1 receptors (Homo sapiens, UniProt P35367)", "sequence (P35367 whole entry)": "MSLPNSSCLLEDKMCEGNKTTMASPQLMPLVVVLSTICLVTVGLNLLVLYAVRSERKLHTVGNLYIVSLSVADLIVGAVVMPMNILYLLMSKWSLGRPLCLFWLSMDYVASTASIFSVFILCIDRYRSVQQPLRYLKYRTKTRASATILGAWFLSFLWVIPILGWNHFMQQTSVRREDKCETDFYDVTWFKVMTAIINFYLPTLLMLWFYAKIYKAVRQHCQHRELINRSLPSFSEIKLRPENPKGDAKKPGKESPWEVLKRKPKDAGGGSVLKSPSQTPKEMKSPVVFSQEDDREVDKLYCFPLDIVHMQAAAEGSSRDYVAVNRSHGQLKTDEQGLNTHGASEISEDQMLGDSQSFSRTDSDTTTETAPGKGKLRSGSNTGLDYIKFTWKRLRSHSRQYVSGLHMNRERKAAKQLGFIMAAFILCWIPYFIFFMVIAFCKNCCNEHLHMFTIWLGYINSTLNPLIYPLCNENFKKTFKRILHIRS", "conditions": "cited from earlier work"}},
  "note": "“Also recorded” adds a separate entry of the source.",
  "data": [
    {"smiles": "COc1cc(CC(C)N)c(OC)cc1I", "note": "(racemic) [DOI, 1-(2,5-dimethoxy-4-iodophenyl)-2-aminopropane]", "values": [
      {"measurement": "IC50", "setting": "[1]", "result": "8 ± 3", "unit": "nM"}
    ]},
    {"smiles": "CC1CC(C)N1C(=O)C1C=C2c3cccc4[nH]cc(c34)CC2N(C)C1", "note": "(stereo not drawn) [LA-SS-Az, (2′S,4′S)-(+)-9,10-Didehydro-6-methylergoline-8β-(trans-2,4-dimethylazetidide)]", "values": [
      {"measurement": "induced gene expression blocked at 1 nM", "setting": "ICAM-1 gene expression [2]; 1 nM pretreatment", "result": "about 50%"},
      {"measurement": "block of TNF-α induced ICAM1 gene expression at 1 nM", "setting": "ICAM-1 gene expression [2]; 1 nM pretreatment", "result": "moderately effective"},
      {"measurement": "block of TNF-α induced ICAM1 gene expression at 50 nM", "setting": "ICAM-1 gene expression [2]; 50 nM pretreatment", "result": "effectively blocked"},
      {"measurement": "effect on ICAM-1 gene expression in rat glioma cells", "setting": "ICAM-1 gene expression [3]", "result": "blocked"}
    ]},
    {"smiles": "CCN(CC)C(=O)[C@@H]1C=C2c3cccc4[nH]cc(c34)C[C@H]2N(C)C1", "note": "[LSD, Lysergic acid diethylamide, reference compound]", "values": [
      {"measurement": "block of TNF-α induced ICAM1 gene expression at 1 nM", "setting": "ICAM-1 gene expression [2]; 1 nM pretreatment", "result": "weak to moderate effects"},
      {"measurement": "TNF-α effect blocked at 50 nM", "setting": "ICAM-1 gene expression [2]; 50 nM pretreatment", "result": "about 85%"}
    ]},
    {"smiles": "COc1cccc([C@H](O)C2CCN(CCc3ccc(F)cc3)CC2)c1OC", "note": "[M100907, R(+)-a-(2,3-dimeth-oxyphenyl)-1-[2-(4-fluorophenylethyl)]-4-pipeddine-methanol, reference compound]", "values": [
      {"measurement": "effect of receptor antagonist on the inhibitory effects of (R)-DOI", "setting": "[4]", "result": "blocked the effects of (R)-DOI"},
      {"measurement": "effect of receptor antagonist on the inhibitory effects of (R)-DOI", "setting": "[4]; listed as MDL100907", "result": "completely blocked"}
    ]},
    {"smiles": "CCCCCCCCCCCCCC(=O)O[C@@H]1[C@@H](C)[C@@]2(O)[C@@H](C=C(CO)C[C@]3(O)C(=O)C(C)=C[C@@H]23)[C@@H]2C(C)(C)[C@]12OC(C)=O", "note": "[PMA, Phorbol 12-myristate 13-acetate, reference compound]", "values": [
      {"measurement": "effect on TNF-α mediated expression in the absence of (R)-DOI", "setting": "[4]; 100 nM prior to TNF-α, ICAM1, VCAM1, IL6", "result": "blocks the effects of TNF-α; also recorded: completely block"}
    ]},
    {"smiles": "COc1cc(OC)c(C(=O)CCCCN2CCC3(CC2)NC(=O)NC3=O)cc1NS(=O)(=O)c1ccc(C(F)(F)F)cc1.Cl", "note": "[RS102221, reference compound]", "values": [
      {"measurement": "effect of receptor antagonist on the inhibitory effects of (R)-DOI", "setting": "[4]; hydrochloride", "result": "did not block; also recorded: had no effect"}
    ]},
    {"smiles": "Cc1cc(NC(=O)Nc2ccc3c(ccn3C)c2)sn1", "note": "[SB204741, N-(1-Methyl-1H-indolyl-5-yl)-N″-(3-methyl-5-isothiazolyl)urea, reference compound]", "values": [
      {"measurement": "effect of receptor antagonist on the inhibitory effects of (R)-DOI", "setting": "[4]", "result": "did not block; also recorded: had no effect"}
    ]},
    {"smiles": "COc1ccc2c(c[n+](C)c3c4cc5c(cc4ccc23)OCO5)c1OC.[Cl-]", "note": "[chelerythrine, 1,2-Dimethoxy-12-methyl[1,3]benzodioxolo[5,6-c]phenanth ridinium chloride, reference compound]", "values": [
      {"measurement": "effect of kinase inhibitor on (R)-DOI inhibition of TNF-α induced ICAM-1 expression", "setting": "ICAM-1 gene expression [2]; inhibitor 100 nM 30 minutes prior to 1 nM (R)-DOI, then TNF-α", "result": "blocked the effects of TNF-α-induced gene expression; also recorded: completely inhibited"},
      {"measurement": "effect of PKC inhibitor on (R)-DOI block of nitrite accumulation", "setting": "[5]", "result": "completely inhibited"},
      {"measurement": "effect of PKC inhibitor on (R)-DOI induced inhibition of p65 translocation", "setting": "[6]", "result": "blocked"}
    ]},
    {"smiles": "O=C(c1ccc(F)cc1)C1CCN(CCn2c(=O)[nH]c3ccccc3c2=O)CC1", "note": "[ketanserin]", "values": [
      {"measurement": "selectivity for 5-HT2A receptors over 5-HT2C receptors", "setting": "5-HT2A receptors", "result": "~20", "unit": "fold"},
      {"measurement": "affinity for α1-adrenergic receptors", "setting": "α1-adrenergic receptors", "result": "high affinity"},
      {"measurement": "potency at blocking histamine H1 receptors", "setting": "histamine H1 receptors", "result": "equipotent"}
    ]}
  ]
}
